Where two headings read alike, the source gives them in different places.
What was measured:
[1] = molecular target: T1, OCT2 (Homo sapiens, UniProt O15244); test: Inhibition of OCT2-mediated oxaliplatin transport in 100% human serum or HBSS containing 4% BSA (IC50,app); settings: for fold higher potency for OCT2 over OCT1, OCT3, MATE1 and MATE2K in transporting oxaliplatin: from IC50,app of Table 4
T1 sequence (O15244 1-555): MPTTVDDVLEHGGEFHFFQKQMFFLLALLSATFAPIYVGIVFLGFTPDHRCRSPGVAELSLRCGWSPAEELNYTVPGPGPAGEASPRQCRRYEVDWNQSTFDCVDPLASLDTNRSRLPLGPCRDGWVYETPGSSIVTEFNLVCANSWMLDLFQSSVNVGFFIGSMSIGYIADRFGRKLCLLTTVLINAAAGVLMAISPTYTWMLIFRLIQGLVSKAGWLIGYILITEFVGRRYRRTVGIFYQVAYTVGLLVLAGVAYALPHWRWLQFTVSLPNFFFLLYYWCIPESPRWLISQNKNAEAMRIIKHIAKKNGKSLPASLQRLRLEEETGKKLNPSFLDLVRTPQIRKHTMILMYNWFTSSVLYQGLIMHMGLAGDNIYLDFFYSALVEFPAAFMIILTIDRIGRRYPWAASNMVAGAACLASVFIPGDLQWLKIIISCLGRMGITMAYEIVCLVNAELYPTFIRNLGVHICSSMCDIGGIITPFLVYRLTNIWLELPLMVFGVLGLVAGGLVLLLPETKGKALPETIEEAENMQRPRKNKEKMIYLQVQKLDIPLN

[2] = molecular target: T2, OCT1 (Homo sapiens, UniProt O15245); test: Inhibition of OCT1-mediated oxaliplatin transport in human serum or 4% BSA HBSS
T2 sequence (O15245 1-554): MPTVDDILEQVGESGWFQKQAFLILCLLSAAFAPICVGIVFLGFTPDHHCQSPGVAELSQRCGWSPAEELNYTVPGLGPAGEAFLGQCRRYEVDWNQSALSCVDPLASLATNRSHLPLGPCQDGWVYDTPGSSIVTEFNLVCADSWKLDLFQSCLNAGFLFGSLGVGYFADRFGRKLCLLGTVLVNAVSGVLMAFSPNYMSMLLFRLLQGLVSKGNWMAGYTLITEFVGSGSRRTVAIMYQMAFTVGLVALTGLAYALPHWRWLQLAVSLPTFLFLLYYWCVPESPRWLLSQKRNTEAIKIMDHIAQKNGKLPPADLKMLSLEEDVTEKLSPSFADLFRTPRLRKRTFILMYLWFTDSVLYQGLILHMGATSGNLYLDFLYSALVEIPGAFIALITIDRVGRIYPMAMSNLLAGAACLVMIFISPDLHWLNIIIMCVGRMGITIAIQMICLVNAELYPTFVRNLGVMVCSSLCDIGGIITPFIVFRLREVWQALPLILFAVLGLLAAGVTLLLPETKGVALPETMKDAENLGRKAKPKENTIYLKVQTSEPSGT

[3] = molecular target: T1, OCT2; test: Inhibition of OCT2-mediated oxaliplatin uptake in transfected MDCK-II cells (protein-free HBSS); settings: for inhibition at 30 min, 5 μM / inhibition at 30 min, 50 μM / potency estimated from few doses at 30 min: human
Description: Fully confluent MDCK cell monolayers were transfected with either cDNA plasmids encoding the human transporter to be tested or a GFP control. […] The cells were then washed with ice-cold PBS and lysed with 50:50 acetonitrile:H2O. Intracellular content of the substrate was quantified by LC/MS/MS or a MicroBeta radiometric plate reader.

[4] = molecular target: T1, OCT2; test: Cmax,u/IC50 or Cmax/IC50,app ratio for clinically relevant inhibition of OCT2-mediated oxaliplatin uptake; design: expressed in transfected cells; host or cells: MDCK-II (Madin-Darby canine kidney type II)
Description: The FDA has published guidance in predicting if a drug is likely to be a transporter inhibitor in clinics by using data attained in in vitro models. Cmax,u denotes the maximum free, unbound plasma concentration of a drug. […] Thus, characteristics of the in vitro model may be used to predict in vivo effectiveness.

[5] = molecular target: T1, OCT2; settings: OCT2-mediated uptake; ASP+ 5 μM in HBSS; from Kido Y et al. J Med Chem 2011; cited from earlier work
[6] = molecular target: T1, OCT2; test: Inhibition of OCT2-mediated metformin uptake in transfected MDCK-II cells
[7] = system: MDCK cells expressing OCT2, MATE1 and MATE2K; test: LDH cytotoxicity of oxaliplatin in MDCK-II triple-transporter model; settings: for effect on oxaliplatin induced cytotoxicity in OCT2 expressing cells: buflomedil 3 and 6 μM, dolutegravir 10 μM, erlotinib 6 μM, cimetidine 6 μM, FIG. 6
Description: A triple-transporter model for OCT2(SLC22A2), MATE1(SLC47A1), and MATE2-K(SLC47A2) was created by transfecting fully confluent MDCK-II cell monolayers with DNA mixture containing the plasmids encoding OCT2, MATE1, and MATE-2K at concentrations of 40, 15, and 5 ng/μl, respectively. The OCT2 was expressed on the basolateral cell membrane, and MATE1 and MATE2-K were expressed on the apical side of the cells. […] The apical medium was adjusted to pH 6.7 with 25 mM of 2-(N-morpholino) ethanesulfonic acid (MES).
After removal of the media, a drug-free medium was added in both sides. After incubation 24 hours, the medium was collected, and the lactate dehydrogenase (LDH) activity in the medium was measured using an LDH cytotoxicity assay kit (G-Biosciences. St. Louis, Mo.; or Biochain, Newark, Calif.), according to the manufacturers' instructions. Cytotoxicity was evaluated by measuring the LDH activity in the medium.
Cytotoxicity was tested using the same procedure described above.

[8] = molecular target: T3, OCT3 (Homo sapiens, UniProt O75751); test: Inhibition of OCT3-mediated oxaliplatin transport in human serum or 4% BSA HBSS
T3 sequence (O75751 1-556): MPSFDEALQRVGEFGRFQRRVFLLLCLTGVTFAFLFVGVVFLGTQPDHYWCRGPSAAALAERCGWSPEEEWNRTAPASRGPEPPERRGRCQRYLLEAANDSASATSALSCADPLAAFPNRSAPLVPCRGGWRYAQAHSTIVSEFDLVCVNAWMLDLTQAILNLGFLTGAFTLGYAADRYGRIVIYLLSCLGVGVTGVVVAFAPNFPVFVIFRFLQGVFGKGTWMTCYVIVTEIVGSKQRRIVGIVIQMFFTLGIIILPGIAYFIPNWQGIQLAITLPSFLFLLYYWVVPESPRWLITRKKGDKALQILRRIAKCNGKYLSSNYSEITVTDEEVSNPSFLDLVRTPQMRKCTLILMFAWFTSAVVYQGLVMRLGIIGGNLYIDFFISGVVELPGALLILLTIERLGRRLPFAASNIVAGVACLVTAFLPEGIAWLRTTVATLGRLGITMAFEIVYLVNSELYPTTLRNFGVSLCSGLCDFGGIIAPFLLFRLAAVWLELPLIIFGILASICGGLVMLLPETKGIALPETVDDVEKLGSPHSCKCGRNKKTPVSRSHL

[9] = cited from earlier work; for Plasma protein binding (%): published data
[10] = IC50,app (μM), apparent inhibition constant in 100% human serum or HBSS containing 4% BSA, OCT2-mediated oxaliplatin uptake
[11] = OCT2 IC50, app (μM), 100% human serum or HBSS containing 4% BSA, 20 μM or 100 μM oxaliplatin
[12] = read-out: Plasma peak total concentration Cmax, published clinical pharmacokinetic data
[13] = MDCK-II cells transfected with human OCT2, probe oxaliplatin 10 μM
[14] = 600 mg dosed IV bolus (FIG. 1B)

| Compound | IC50 [1, 10] [µM] | IC50 [1, 11] [µM] | fold higher potency for OCT2 over OCT1, OCT3, MATE1 and MATE2K in transporting oxaliplatin [1] | IC50 [2] [µM] | IC50 [3] [µM] | inhibition at 30 min, 5 μM [3] [%] | inhibition at 30 min, 50 μM [3] [%] | Inhibition % @ 20 μM (substrate ASP+) [5] [%] | IC50 [6] [µM] | effect on oxaliplatin induced cytotoxicity in OCT2 expressing cells [7] | IC50 [8] [µM] | Plasma protein binding (%) [9] [%] | Cmax [9, 12] [µM] | other results |
| --- | --- | --- | --- | --- | --- | --- | --- | --- | --- | --- | --- | --- | --- | --- |
| COc1cc(OC)c(C(=O)CCCN2CCCC2)c(OC)c1 [Buflomedil, 4-pyrrolidin-1-yl-1-(2,4,6-trimethoxyphenyl)butan-1-one] | 1.45 | 1.4 ± 0.2 | at least 20 fold | 34.6 ± 7.6 | 0.78 | 87 | 105 | 104 | 5.7 ± 0.8 | significantly reduced oxaliplatin (OXA) induced cytotoxicity | 28 ± 11.4 | 70 | 6.8 | Cmax/IC50, app ratio ([4]; 300 mg po, bid): 4.69; Cmax/IC50, app ratio ([4]; 600 mg slow-release, po, qd): 4.97; IC50 ([7]; Canis lupus familiaris, MDCK, read-out: IC50 for reduction of oxaliplatin-induced cytotoxicity): 6 µM; reduction of cytotoxicity of 100 μM oxaliplatin ([7]; buflomedil 3-1000 μM, LDH release, FIG. 5): reduced cytotoxicity of 100 μM Oxaliplatin in OCT2-expressing cells in a dose-dependent fashion; Mean Cmax ([9]; 300 mg po, bid): 2100 ng/mL; Mean T1/2 ([9]; 300 mg po, bid): 3.4 h; Mean Cmax ([9]; 600 mg slow-release, po, qd): 2200 ng/mL; Mean T1/2 ([9]; 600 mg slow-release, po, qd): >10 h; average clearance ([9]; Group A patients): 292 mL/min; average clearance ([9]; Group B patients, seniors (average age 82 yrs) with impaired renal clearance): 99.5 mL/min; Cmax ([9]; read-out: Mean Cmax, 300 mg po, bid): 6.8 µM; Cmax ([9]; read-out: Mean Cmax, 600 mg slow-release, po, qd): 7.2 µM |
| C[C@@H]1CCO[C@H]2Cn3cc(C(=O)NCc4ccc(F)cc4F)c(=O)c(O)c3C(=O)N12 [Dolutegravir] | 3.37 | 3.4 ± 1 | – | > 100 | 0.2 | – | – | – | 0.54 ± 0.09 | significantly reduced oxaliplatin (OXA) induced cytotoxicity | > 100 | 99.5 | 10.9 | inhibition at 30 min, 5 μM [3, 13]: 83%; inhibition at 30 min, 50 μM [3, 13]: 97%; potency estimated from few doses at 30 min [3, 13]: 0.2 µM; Cmax/IC50, app ratio ([4]; 50 mg po qd, day 10): 4.36; Cmax/IC50, app ratio ([4]; 50 mg po qd, single dose): 3.23; Mean Cmax ([9]; 50 mg po qd, day 10): 6160 ng/mL; Mean T1/2 ([9]; 50 mg po qd, day 10): ~15 h; Mean Cmax ([9]; 50 mg po qd, single dose): 4560 ng/mL; Mean T1/2 ([9]; 50 mg po qd, single dose): 14.2 h; Cmax ([9]; read-out: Mean Cmax, 50 mg po qd, day 10): 14.7 µM; Cmax ([9]; read-out: Mean Cmax, 50 mg po qd, single dose): 10.9 µM |
| Clc1ccc(COC(Cn2ccnc2)c2ccc(Cl)cc2Cl)c(Cl)c1 (stereo not drawn) [Miconazole] | 3.3 | 3.3 ± 0.6 | at least 2 fold | 8.4 ± 1.5 | 1.55 | 39 | 97 | 91 | 142 | – | 49.2 ± 22.6 | 92 | 14.9 | potency estimated from few doses at 30 min ([3]; IC50 (μM) (substrate Oxaliplatin)): 1.55 µM; Cmax/IC50, app ratio ([4]; 800 mg IV): 3.64; fold less potent in inhibiting OCT2-mediated metformin transport than ASP+ and oxaliplatin transport ([6]; comparison of Table 1 potencies): approximately 70 fold; decrease of plasma concentration at 3 hour [9, 14]: nearly five-fold decrease at 3 hour; plasma half-time (initial phase) [9, 14]: 0.4 h; Mean Cmax ([9]; 800 mg IV): 5000 ng/mL; Mean T1/2 (hour), distribution phase ([9]; 800 mg IV): 0.4 (dis- hour; Mean T1/2 (hour), terminal phase ([9]; 800 mg IV): phase), 8.9 hour; Cmax ([9]; read-out: Mean Cmax, 800 mg IV): 12 µM |

— patent US11197862B2, “Methods of preventing toxicity of platinum drugs” (XOMICS BIOPHARMA, INC., priority 2015, dated 2021)
